Experiment [1] concerns vaccinia virus. It counts as in vivo, mice. Conditions: more vigorous rubbing in; treatment continued until death.
Experiment [2] has as its system Vaccinia virus (WR strain). More on the design: species or system mice. Conditions: mouse, in vivo.
For experiment [3], the system named is Vaccinia virus (WR strain). More on the design: species or system mice. The settings on record: mouse, in vivo. The source holds these as a separate data set.

“Also recorded” adds a separate entry of the source. Like-named read-outs stand apart in the source and are kept apart here.

As to benzalkonium chloride, the “benefit in terms of survival or suppressing lesion severity” value in experiment [1] is on record as “no benefit”. In experiment [2], the Survivors/Total is 0/10; the “mean day of death / survival time compared to water” value is “longer than those respective groups treated with water, but the results were not statistically significant; also recorded: slightly longer survival times”; the protection from death result is recorded as “No protection from death”. Further, in experiment [3], the Survivors/Total was 0/10 and the protection from death result is “No protection from death”.

The values are drawn from patent publication US8173709B2, “Anti-infective methods for treating pathogen-induced disordered tissues” (priority 1999, dated 2012).
